Columns and labels:
Assay in all cases: relative viability (nuclei count vs DMSO), 5 days (fraction); higher = more cells survive
AZ23 = compound: CC(C)Oc1cc(Nc2nc(N[C@@H](C)c3ccc(F)cn3)ncc2Cl)n[nH]1 [AZ23]
Method in brief: (§1)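 Viability was read as treated-well nuclei divided by vehicle-well nuclei, using the median across plates. Lung cancer cell lines in 1536-well plates were kept overnight at 37 °C, pinned with five √10-spaced library-drug doses, and after 5 days were Hoechst-stained, imaged at 4× and counted in MetaXpress. Plates passed only with control CV below 25% and at least one doubling.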

HG-5-88-01 = compound: CC(C)S(=O)(=O)C1=CC=CC=C1NC2=NC(=NC(=C2Cl)N)NC3=C(C=C(C=C3)N4CCC(CC4)C(=O)N)OC [HG-5-88-01]
Method in brief: as §1

Embelin = compound: CCCCCCCCCCCC1=C(O)C(=O)C=C(O)C1=O [Embelin]
Method in brief: as §1

[1] = compound: C[C@@H]1CN(CC(=O)Nc2ccc3c(c2)Cc2cccc(-c4cc(=O)cc(N5CCOCC5)o4)c2S3)C[C@H](C)O1
Method in brief: as §1

Vatalanib = compound: Clc1ccc(Nc2nnc(Cc3ccncc3)c3ccccc23)cc1 [Vatalanib]
Method in brief: as §1

Cell Line	relative viability (AZ23; 0.01 µM)	relative viability (AZ23; 0.03162 µM)	relative viability (AZ23; 0.3162 µM)	relative viability (HG-5-88-01; 0.04 µM)	relative viability (HG-5-88-01; 0.1265 µM)	relative viability (HG-5-88-01; 0.4 µM)	relative viability (HG-5-88-01; 1.265 µM)	relative viability (HG-5-88-01; 4 µM)	relative viability (Embelin; 0.08 µM)	relative viability (Embelin; 0.8 µM)	relative viability (Embelin; 2.53 µM)	relative viability (Embelin; 8 µM)	relative viability ([1]; 0.04 µM)	relative viability ([1]; 0.1265 µM)	relative viability ([1]; 0.4 µM)	relative viability ([1]; 4 µM)	relative viability (Vatalanib; 0.04 µM)	relative viability (Vatalanib; 0.1265 µM)	relative viability (Vatalanib; 0.4 µM)	relative viability (Vatalanib; 1.265 µM)	relative viability (Vatalanib; 4 µM)
NCI-H2085	1.11	1.05	0.961	1.05	1.07	1.02	0.972	1.01	0.985	1.05	1.07	0.992	0.957	1.02	0.977	0.834	0.997	0.953	0.975	0.92	0.931
NCI-H2087	1.24	1.21	0.963	1.16	0.989	0.916	1.07	0.746	1.01	1.22	1.27	1.05	1.15	0.912	1.1	0.948	1.18	0.928	1.08	0.889	1.09
NCI-H2126	1.05	1.02	0.991	0.905	0.989	0.923	0.904	0.88	1.03	0.991	1.03	0.934	1.01	0.979	1	0.909	0.983	1	1.03	0.945	0.925
NCI-H2170	1.07	0.977	1.2	0.977	1.02	0.899	0.706	1.01	0.981	1.01	1.09	0.919	0.989	0.997	0.985	0.888	1.03	0.979	0.997	0.987	0.944
NCI-H2228	1.16	1.1	0.868	0.725	0.588	0.371	0.3	0.345	1	0.946	1.08	1.02	0.941	0.937	0.909	0.625	0.988	0.902	1.15	1.09	0.975
NCI-H2342	0.993	0.942	1.02	0.759	1.1	0.93	0.728	1.05	0.894	1.02	1.15	0.898	1.01	0.847	0.83	0.786	1	0.913	0.97	1.03	0.975
NCI-H2347	1.12	1.16	0.997	1.04	1.02	1.07	0.94	1.01	0.987	1.09	1.09	1.03	1.1	1.08	1.08	0.981	1.09	1.01	1.02	0.961	0.938
NCI-H2405	0.982	1.09	0.911	1.03	1	0.925	0.802	0.901	1.09	1.09	0.993	0.921	1.09	1.05	0.972	0.983	1.01	0.919	0.732	0.919	0.946

— the supplement of paper PMC10307832
